From patent US20230203031A1, “COMPOUNDS USEFUL FOR INHIBITING CDK7” (Eli Lilly and Company, priority 2020, published 2023)

Experiments:
A2780 = experiment: Cell proliferation assay (CELL TITER GLO), A2780; type: cell-based; settings: Homo sapiens, 168 h; A2780 ovarian cancer, seven days after compound addition
Method: Cell lines are plated at the density 5000 cells per well in 100 µL per well growth medium into a white 96-well cell culture plate. See Table 1 for cell line and culture medium information. Plates are incubated at 37° C. and 5% CO2. The following day, a serial dilution of the test compound is prepared by diluting the compound 1:3 in DMSO for 10 points. The DMSO plate is 1000X the final concentration. In addition to the CDK7 inhibitor, a DMSO alone column is included as a maximum growth control and 10 µM staurosporine final column is included as a maximum growth inhibition control. A 10X dilution plate is then prepared by adding 2 µL per well from the 1000X DMSO plate to 198 µL per well of OMEM (Life Technologies, Carlsbad, CA, cat#31985-070). Cells are treated with indicated compound by adding 11 µL per well from the 10X OMEM plate to the cell plate containing 100 µL per well growth medium for a 1X final concentration. Plates are placed back into the incubator at 37° C. and 5% CO2. Six or seven days after compound addition, for HCC1806 or A2780 cells respectively, plates are removed from the incubator and allowed to equilibrate to RT. […] After 15 minute incubation on shaker, luminescence is read, 1 second per well, using a Wallac VICTOR2™. […]

[1] = test system: HCC1806 xenograft tumor model; experiment: Xenograft tumor model; type: in vivo, female athymic nude mice; settings: QDx28, HCC1806 (KMT2C)
Method: The purpose of this assay is to measure reduction in tumor volume in response to the compound of Example 1. To evaluate in vivo efficacy of a test compound, multiple xenograft tumor models are utilized. Briefly, 2.5 × 10^6 tumor cells in a 1:1 MATRIGEL® mix (0.2 mL total volume) are injected subcutaneously into the female athymic nude mice (Envigo, Harlan Laboratories). After allowing tumors to reach a desired size of ~300-500 mm^3, animals are randomized into groups of 5 for efficacy studies. Test compound is administered via oral gavage (PO) at indicated doses and regimens. Tumor growth and body weight are monitored over time to evaluate efficacy and signs of toxicity.
Test compound is formulated in 1% hydroxyethylcellulose, 0.25% polysorbate 80, 0.05% antifoam in purified water (HEC) and administered by oral gavage (final volume 0.2 mL) at the doses indicated in Table 2. A test compound is formulated on a weekly basis and stored at 4° C. Vehicles are administered to the control groups according the schedules used above using a volume of 0.2 mL per dose. Mice are dosed via oral gavage and tumor samples are collected at termination and stored at -80° C.
Tumor size and body weight are recorded and analyzed bi-weekly.
Delta T/C% is calculated when the endpoint tumor volume in a treated group is at or above baseline tumor volume. The formula is 100×(T-T0)/(C-C0). […]

CDK7 = target: T1, CDK7 (Homo sapiens, UniProt P50613); experiment: DiscoverX KINOMEscan competition binding, CDK7; settings: 0.2 µM compound
T1 construct: purchased DiscoverX Corporation (KINOMEscan service)
Method: (§1) The purpose of the study is to generate an in vitro selectivity profile of the compounds of Example 8. To address selectivity, the compound of Example 8 is tested in a panel of 468 human kinases at DiscoverX Corporation using the KINOMEscan™ screening platform. KINOMEscan™ employs a novel and proprietary active site-directed competition binding assay to quantitatively measure interactions between test compounds and more than 450 human kinases and disease relevant mutant variants.
(§2) Compounds that bind the kinase active site and directly (sterically) or indirectly (allosterically) prevent kinase binding to an immobilized ligand, will reduce the amount of kinase captured on the solid support. […] Compound activity is monitored by measuring the amount of kinase captured in test versus control samples by using a qPCR method that detects the associated DNA label. Further information regarding the DiscoverX Corporation KINOMEscan™ screening platform can be found at http://www.discoverx.com.
(§3) Assays to monitor binding to a 468 kinase panel were conducted at DiscoverXⓇ Corporation (Fremont, CA). Example 8 is tested at 20 µM, 2 µM, and 0.2 µM final concentrations. Kinases are tagged with DNA for qPCR detection. […] The kinase concentration in the eluates is measured by qPCR. […]

[2] = test system: panel of 468 human kinases; experiment: DiscoverX KINOMEscan selectivity profiling, 468 kinase panel; type: binding; settings: CDK7 the only kinase with less than 35% control activity at 0.2 µM
Method: as §1, §2, §3

T1 sequence (P50613 whole entry): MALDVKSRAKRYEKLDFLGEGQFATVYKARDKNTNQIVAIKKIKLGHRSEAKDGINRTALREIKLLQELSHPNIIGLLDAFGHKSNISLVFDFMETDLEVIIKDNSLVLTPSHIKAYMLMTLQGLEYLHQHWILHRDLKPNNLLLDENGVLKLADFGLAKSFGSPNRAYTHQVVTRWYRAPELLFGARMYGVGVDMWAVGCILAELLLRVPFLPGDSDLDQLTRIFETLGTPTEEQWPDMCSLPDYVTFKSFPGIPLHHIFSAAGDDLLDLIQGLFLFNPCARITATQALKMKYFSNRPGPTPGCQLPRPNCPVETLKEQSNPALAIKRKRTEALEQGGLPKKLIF

In the case of `C=CC(=O)N1CCO[C@H](CN2CCC(Nc3cc(C(C)F)cn4c(C(C)C)cnc34)CC2)C1` (single isomer, unassigned) [Example 1], the IC50 (A2780) is reported as 22.8 nM, the “Avg. ΔT/C” value ([1]; 10 mg/kg PO) is reported as 16.5% and the “Avg. ΔT/C” value ([1]; 20 mg/kg PO) is reported as -38.0%.

`C=CC(=O)N1CCO[C@H](CN2CCC(Nc3cc(C(F)(F)F)cn4c(C(C)C)cnc34)CC2)C1` [Example 8, 1-[(2R)-2-[[4-[[3-isopropyl-6-(trifluoromethyl)imidazo[1,2-a]pyridin-8-yl]amino]-1-piperidyl]methyl]morpholin-4-yl]prop-2-en-1-one] was tested, and the remaining binding at 0.2 µM (CDK7; read-out: % control activity against CDK7) was about 4%, the inhibition at 0.2 µM (CDK7; read-out: inhibition against CDK7) was about 96% and the “selectivity against the 468 protein kinases panel” value [2] was “excellent selectivity”.
